# Laboratory results: patent EP4717275A1, “ANTI-LUNG CANCER COMBINED DRUG AND USE THEREOF” (Gunagdong Yinzhu Pharmaceutical Technology Co., Ltd, priority 2023, dated 2024)
# Marks after values point to notes of the source that are not given here.
# Legend:
# [1] = tested on: human lung cancer NCI-H2228 xenografts; assay: Therapeutic effect in vivo on NCI-H2228 xenografts in nude mice; parameters: species or system BALB/c Nude mice; settings: PO; for Relative tumor proliferation rate(%) Day 21: %T/CRTV; for Tumor growth inhibition rate(%) Day 21: %TGITV from tumor volume vs control; for Tumor growth inhibition rate(%) Day 21 / Tumor volume (mm^3,Mean±SEM) Day 21 / Relative tumor volume Day 21: QD× 21; for Tumor inhibition rate(%) Day 21: %TGITW from tumor weight vs control; for Tumor volume (mm^3,Mean±SEM) Day 21: QD×21, dose per group; for Relative tumor volume Day 21: RTV = Vt/V0, Mean ± SEM
# Procedure: (§1) BALB/c Nude mice, female, 8-10 weeks old, 18-20g. The variation of the body weight is ±20% around average body weight. 80 mice were inoculated and 60 mice were grouped.
# Table 9 Experimental design of therapeutic effect of the drugs in vivo
# NCI-H2228 cells were cultured in RPMI 1640 medium supplemented with 10% FBS and maintained in a 37°C, 5% CO2 humidified incubator.
# Log-phase NCI-H2228 cells were harvested, resuspended in RPMI 1640 basal medium containing 50% Matrigel, and adjusted to a concentration of 2 × 10^7 cells/mL. Under aseptic conditions, 0.1 mL of the cell suspension was injected subcutaneously into the right flank of mice at a concentration of 2 × 10^6 cells/0.1 mL/mouse.
# When the mean tumor volume reached approximately 150 mm^3, animals were randomly grouped based on tumor volume, ensuring inter-group tumor volume variation was less than 10% of the mean.
# (§2) The grouping day was designated as Day 0, and administration commenced according to animal body weight.
# The same as the therapeutic effect evaluation experiments for Examples 1-2 and Comparative Examples 1-3.
# [2] = tested on: human lung cancer NCI-H1975 xenografts; assay: Therapeutic effect in vivo on NCI-H1975 xenografts in nude mice; parameters: species or system BALB/c Nude mice; settings: PO; for Relative tumor proliferation rate(%) Day 21: %T/CRTV; for Tumor growth inhibition rate(%) Day 21: %TGITV from tumor volume vs control; for Tumor inhibition rate(%) Day 21: %TGITW from tumor weight vs control; for Tumor volume (mm^3,Mean±SEM) Day 21: QD×21, dose per group; for Relative tumor volume Day 21: RTV = Vt/V0, Mean ± SEM
# Procedure: BALB/c Nude mice, female, 8-10 weeks old, 18-20g. […] Table 2 Experimental design of therapeutic effect of the drugs in vivo […] NCI-H1975 cells were cultured in RPMI 1640 medium supplemented with 10% FBS and maintained in a 37°C, 5% CO2 humidified incubator. Log-phase NCI-H1975 cells were harvested, resuspended in RPMI 1640 basal medium containing 50% Matrigel, and adjusted to a concentration of 2 × 10^7 cells/mL. Under aseptic conditions, 0.1 mL of the cell suspension was injected subcutaneously into the right flank of mice at a concentration of 2 × 10^6 cells/0.1 mL/mouse. […] The grouping day was designated as Day 0, and administration commenced according to animal body weight. […] Animal body weight and tumor volume were measured twice weekly throughout the experiment. Tumor length and width were measured using a digital caliper, with tumor volume estimated from these measurements. After the final weighing on Day 21, remaining animals were euthanized with CO2. Tumors were weighed, photographed, and the experiment concluded. […] Tumor growth inhibition rate (%TGITV) is calculated as: […] Relative Tumor Volume (RTV) is calculated as Vt/V0, where V0 is the tumor volume at grouping and Vt is the tumor volume at each measurement. Relative Tumor Growth Rate (%T/CRTV) is calculated as TRTV/CRTV × 100%, where TRTV is the RTV of the treatment group and CRTV is the RTV of the negative control group. Tumor growth inhibition rate (%TGITW) is calculated as: ([…] × 100%, where TWc is the average tumor weight in the negative control group and TWT is the average tumor weight in the treatment group. […] Drug-related animal mortality exceeding 20% indicates severe toxicity at that dose. All experimental data in this study are expressed as Mean ± SEM. The evaluation of the combination index (CI) of drugs relies on the following equation: […]), wherein E(A+B) is the inhibition rate of combination drug, EA and EB is the inhibition rate of drug A and drug B respectively. E(A+B) in the equation represents 'measured synergistic effect' and (EA+EB-EA×EB) is 'expected synergistic effect'. CI=0.85-1.15 indicates a mere addition of the effect of two drugs, >1.15 indicates enhancement (or synergy), and <0.85 indicates antagonism. • Combination index of tumor growth inhibition: CAI, 40mg/kg + AZD9291, 1mg/kg: 1.27; […] CAI, 40mg/kg + AZD9291, 1mg/kg: 1.20; […]
# [3] = format: in vivo; settings: dead/total animals at Day 21; NCI-H1975 study; PO, QD×21
# Procedure: as §1, §2
# Animal body weight and tumor volume were measured twice weekly throughout the experiment. Tumor length and width were measured using a digital caliper, with tumor volume estimated from these measurements.
# Clinical observations were recorded daily to assess overall health status, weight abnormalities, behavioral changes, and other treatment-related adverse reactions.
# In accordance with animal welfare regulations, animals meeting any of the following criteria during the study were removed from the experimental group and euthanized: 1. Body weight loss exceeding 20% compared to Day 0 (BWL ≥ 20%); 2. Severe adverse reactions such as blindness or paralysis; 3. Tumor volume exceeding 2000 mm^3; 4.
# The animal body weight change rate (%BWC) is calculated as: (BWt - BW0) / BW0 × 100%, where BWt is the animal body weight at each measurement and BW0 is the animal body weight at grouping.
# According to China's NMPA Technical Guidance Principles for Non-clinical Studies of Cytotoxic Antineoplastic Drugs (November 2006), %T/CRTV ≤ 40% and statistically significant P < 0.05 indicate efficacy. Drug-related animal mortality exceeding 20% indicates severe toxicity at that dose.
# All experimental data in this study are expressed as Mean ± SEM.
# mouse melanoma = settings: transplanted tumors, dexamethasone by intraperitoneal injection; cited from earlier work
# [4] = QD×21, listed as Comparative Example 5
# [5] = QD×21, listed as Comparative Example 6
# [6] = QD×21, listed as Comparative Example 5, CAI, 20mg /kg
# [7] = QD×21, listed as Comparative Example 6, CAI, 40mg /kg
# [8] = QD×21, listed as Comparative Example 2
# [9] = QD×21, listed as Comparative Example 3
compound,measurement,setting,value
"NC(=O)c1nnn(Cc2cc(Cl)c(C(=O)c3ccc(Cl)cc3)c(Cl)c2)c1N [CAI, 5-Amino-1-[3,5-dichloro-4-(4-chlorobenzoyl chloride)benzyl]-1H-1,2,3-triazole-4-benzamide]",Relative tumor proliferation rate(%) Day 21,[1]; [4],69.94%
same,Relative tumor proliferation rate(%) Day 21,[1]; [5],68.46%
same,Tumor growth inhibition rate(%) Day 21,[1]; [6],33.39%
same,Tumor growth inhibition rate(%) Day 21,[1]; [7],34.01%
same,Tumor inhibition rate(%) Day 21,[1]; [4],39.40%
same,Tumor inhibition rate(%) Day 21,[1]; [5],42.96%
same,"Tumor volume (mm^3,Mean±SEM) Day 21","[1]; listed as Comparative Example 5, CAI, 20mg /kg",979.25± 64.93* mm^3
same,"Tumor volume (mm^3,Mean±SEM) Day 21","[1]; listed as Comparative Example 6, CAI, 40mg /kg",970.11± 102.46* mm^3
same,"Tumor weight (g,Mean±SEM) Day 21",[1]; [4],0.529 ± 0.055 g
same,"Tumor weight (g,Mean±SEM) Day 21",[1]; [5],0.498 ± 0.059 g
same,Relative tumor volume Day 21,[1]; [6],6.12±0.29
same,Relative tumor volume Day 21,[1]; [7],5.99±0.48
same,Relative tumor proliferation rate(%) Day 21,[2]; [8],93.04%
same,Relative tumor proliferation rate(%) Day 21,[2]; [9],93.23%
same,Tumor growth inhibition rate(%) Day 21,[2]; QD×21,12.99%
same,Tumor growth inhibition rate(%) Day 21,[2]; [9],12.33%
same,Tumor inhibition rate(%) Day 21,[2]; [8],15.76%
same,Tumor inhibition rate(%) Day 21,[2]; [9],7.06%
same,"Tumor volume (mm^3,Mean±SEM) Day 21",[2]; listed as Comparative Example 2,1536.24 ±222.57 mm^3
same,"Tumor volume (mm^3,Mean±SEM) Day 21",[2]; listed as Comparative Example 3,1547.91 ±221.67 mm^3
same,"Tumor weight (g,Mean±SEM) Day 21",[2]; [8],1.384 ± 0.266 g
same,"Tumor weight (g,Mean±SEM) Day 21",[2]; [9],1.527 ± 0.257 g
same,Relative tumor volume Day 21,[2]; [8],10.03 +1.27
same,Relative tumor volume Day 21,[2]; [9],10.05 ±1.30
same,Fatality,[3],0/10 (Day 21)
same,inhibition rate,mouse melanoma,39.8%
